Source: patent publication US20040126817A1, “Gap junction permeability assay” (priority 2001, published 2004)
Where a name gives a salt, the structure may show the parent alone.

Assays:
[1] = system: GJIC in NRK (Normal Rat Kidney) cells, mainly Cx43; assay: Gap junction coupling assay, NRK sender cells (D1-receptor) plus NRK receiver cells (CRE-luciferase), endogenous connexins; format: cell-based; conditions: for Luciferase responses: NRK sender:receiver 1:1, 10 μM forskolin or 1 μM cAMP, 6 hours; for Luciferase responses / Luciferase response, 50 μM AGA / Luciferase response, 100 μM AGA / Luciferase response, 150 μM AGA / Luciferase response, Vehicle: control = 100%; for Luciferase response, 50 μM AGA / Luciferase response, 100 μM AGA / Luciferase response, 150 μM AGA / Luciferase response, Vehicle: NRK sender:receiver 1:1, agonist 10 μM, 6½ hours; for Luciferase response, 50 μM AGA: 50 μM AGA added 30 min before; for Luciferase response, 100 μM AGA: 100 μM AGA added 30 min before; for Luciferase response, 150 μM AGA: 150 μM AGA added 30 min before; for Luciferase response, Vehicle: no AGA (DMSO)
[2] = system: Cx32-mediated GJIC in HeLa cells; assay: Gap junction coupling assay, HeLa sender and receiver cells with or without transfected Cx32; format: cell-based, human; conditions: 10 μM, duplicates; for Luciferase response, Cells transfected with Cx32: 4.8 μg Cx32 DNA; for Luciferase response, Cells transfected with Cx32 / Luciferase response, Cells not transfected with Cx32: 1 ml sender + 0.2 ml receiver cells, percentage of control; for Luciferase response, Single dose Cx32: sender cells 2.4 μg Cx32 DNA; for Luciferase response, Single dose Cx32 / Luciferase response, Double dose Cx32: control = 100%; for Luciferase response, Double dose Cx32: sender cells 4.8 μg Cx32 DNA
[3] = system: GJIC in CHO (Chinese Hamster Ovary) cells; assay: Gap junction coupling assay, CHO sender and receiver cells with or without exogenous Cx32; format: cell-based; conditions: 10 μM, 8 hours, control = 100%, duplicates; for Luciferase response, With exogenous Cx32: CHO transfected with Cx32 DNA; for Luciferase response, No exogenous Cx32: CHO
NRK cells = assay: CRE-luciferase response in NRK receiver cells only (check for endogenous D1-receptor); format: cell-based, rat; conditions: for Luciferase responses: 10 μM, 6½ hours, control = 100%
Method: These experiments are performed to investigate whether the NRK cells express the D1-receptor endogenously. If NRK cells express D1 receptor endogenously, the receiver cells would be able to generate cAMP and produce a chemiluminescent signal independently of GJIC and the endogenous messenger generated by the sender cell. So only receiver cells are used for this experiment.
Cells are transfected with 5 μg CRE-luciferase DNA and 500 ng pRL-SV40 DNA per 6 cm dish. Each well of a 24-well plate received 250 μL cell suspension and 250 μL media, or approx. 25 000 cells. Cells are stimulated with 10 μM forskolin or apomorphine during 6½ hours before harvesting.

HeLa cells = assay: CRE-luciferase response in HeLa receiver cells only; format: cell-based, human; conditions: n=2, control = 100%
Method: This is conformed by an experiment in which apomorphine is added to wells containing only receiver cells. As predicted, there is no elicited response. Luciferase activity values are 100.0±6.5% (control, n=2) and 75.9±3.0% (apomorphine, n=2).

[4] = IV injection of glucagon in humans; cited from earlier work

For `CC1(C)[C@@H](O)CC[C@]2(C)[C@H]3C(=O)C=C4[C@H]5C[C@@](C)(C(=O)O)CC[C@]5(C)CC[C@@]4(C)[C@]3(C)CC[C@@H]12` [18-alpha-glycyrrhetinic acid], which “effect on the apomorphine-induced chemiluminescent signal (GJIC)” value ([1]; NRK, 50, 100, 150 μM AGA, 10 μM apomorphine) is on record?
The value was “able to decrease this effect in a concentration-dependent manner”.

What about the “effect on the response to forskolin (independent of GJIC)” value ([1]; NRK, 50, 100, 150 μM AGA, 10 μM forskolin) of the same molecule?
Its value is “unaffected”.

What does the source list for `C=C[C@@]1(C)CC(=O)[C@]2(O)[C@@]3(C)[C@@H](O)CCC(C)(C)[C@@H]3[C@H](O)[C@H](OC(C)=O)[C@@]2(C)O1` [Forskolin, forskolin]?
Luciferase response, Cells transfected with Cx32 [2]: 254.6 ± 113.3%; Luciferase response, Cells not transfected with Cx32 [2]: 272.5 ± 40.9%; Luciferase response, Single dose Cx32 [2]: 139.0 ± 14.3%; Luciferase response, Double dose Cx32 [2]: 195.1 ± 18.2%; Luciferase response, With exogenous Cx32 [3]: 356.5 ± 21.8%; Luciferase response, No exogenous Cx32 [3]: 701.9 ± 0.0%; increase in chemiluminescent signal (NRK cells; 10 μM forskolin): more than 8 fold; Luciferase responses (NRK cells): 876.6%±64.1; Luciferase responses [1]: 669.3±56.8%; Luciferase response, 50 μM AGA [1]: 732.6 ± 52.2%; Luciferase response, 100 μM AGA [1]: 669.9 ± 18.3%; Luciferase response, 150 μM AGA [1]: 685.8 ± 32.0%; Luciferase response, Vehicle [1]: 581.3%

For `CN1CCc2cccc3c2[C@H]1Cc1ccc(O)c(O)c1-3` [Apomorphine, Apomorphine hydrochloride], which “Luciferase response, Cells transfected with Cx32” value [2] is on record?
The value was 217.5 ± 3.0%.

What about the “Luciferase response, Cells not transfected with Cx32” value [2] of the same molecule?
The value was 109.5 ± 1.1%.

What about the “Luciferase response, Single dose Cx32” value [2] of the same molecule?
The value was 121.1 ± 7.2%.

What about the “Luciferase response, Double dose Cx32” value [2] of the same molecule?
Its value is 176.5 ± 8.1%.

And the “Luciferase response, With exogenous Cx32” value [3]?
The value was 302.2 ± 2.2%.

And the “Luciferase response, No exogenous Cx32” value [3]?
The value was 222.6 ± 22.6%.

What about the Luciferase responses (NRK cells) of the same molecule?
Its Luciferase responses is 124.8%±6.8.

What about the Luciferase activity values (HeLa cells) of the same molecule?
The Luciferase activity values was 75.9±3.0%.

And the “increase over background of the chemiluminescent signal” value ([1]; NRK sender:receiver 1:1, 10 μM apomorphine)?
Its value is “three-fold increase”.

And the “Luciferase response, 50 μM AGA” value [1]?
The value was 156.0 ± 8.9%.

What about the “Luciferase response, 100 μM AGA” value [1] of the same molecule?
The value was 137.6 ± 9.3%.

And the “Luciferase response, 150 μM AGA” value [1]?
Its value is 109.7 ± 8.0%.

What about the “Luciferase response, Vehicle” value [1] of the same molecule?
Its value is 297.5%.

And the “Receiver Cell Response” value ([1]; NRK sender:receiver 5:1, 6 hours, buffer = 100%, mean±SEM of 3)?
Its value is 324 ± 14.4%.

With `Nc1ncnc2c1ncn2[C@@H]1O[C@@H]2COP(=O)(O)O[C@H]2[C@H]1O` [cAMP, cyclic adenosine monophosphate] as the molecule, how does the Luciferase responses [1] read?
The Luciferase responses was 87.5±5.8%.

With glucagon as the molecule, how does the “plasma levels of cAMP” value [4] read?
Its value is “up to 200 nM”.
